In patent US12540120B2, “Herbicidal compounds” (SYNGENTA CROP PROTECTION AG, priority 2019, dated 2026):

Assays:
Type in all cases: in vivo
[1] = system: Amaranthus retoflexus (AMARE); test: B2 Post-Emergence Efficacy—Test 2; conditions: post-emergence application, 250 g/ha, evaluated after 13 days (Test 2)
Method: (§1) B2 Post-Emergence Efficacy—Test 2 Seeds of a variety of test species are sown in standard soil in pots:—Solanum nigrum (SOLNI), Amaranthus retoflexus (AMARE), Setaria faberi (SETFA), Echinochloa crus-galli (ECHCG), Ipomoea hederacea (IPOHE), Lolium perenne (LOLPE). After 8 days cultivation (post-emergence) under controlled conditions in a glasshouse (at 24/16° C., day/night; 14 hours light; 65% humidity), the plants are sprayed with an aqueous spray solution derived from the formulation of the technical active ingredient in acetone/water (50:50) solution containing 0.5% Tween 20 (polyoxyethylene sorbitan monolaurate, CAS RN 9005-64-5). Compounds are applied at 250 g/ha. The test plants are then grown in a glasshouse under controlled conditions in a glasshouse (at 24/16° C., day/night; 14 hours light; 65% humidity) and watered twice daily. After 13 days, the test is evaluated for the percentage damage caused to the plant. The biological activities are assessed on a five point scale (5=80-100%; 4=60-79%; 3=40-59%; 2=20-39%; 1=0-19%). A blank value in the table is indicative that the compound was not tested on that species.

[2] = system: Echinochloa crus-galli (ECHCG); test: B2 Post-Emergence Efficacy—Test 2; conditions: post-emergence application, 250 g/ha, evaluated after 13 days (Test 2)
Method: as §1

[3] = system: Ipomoea hederacea (IPOHE); test: B2 Post-Emergence Efficacy—Test 2; conditions: post-emergence application, 250 g/ha, evaluated after 13 days (Test 2)
Method: as §1

Lolium perenne (LOLPE) [4] = test: B2 Post-Emergence Efficacy—Test 2; conditions: post-emergence application, 250 g/ha, evaluated after 13 days (Test 2)
Method: as §1

Setaria faberi (SETFA) [5] = test: B2 Post-Emergence Efficacy—Test 2; conditions: post-emergence application, 250 g/ha, evaluated after 13 days (Test 2)
Method: as §1

Solanum nigrum (SOLNI) [6] = test: B2 Post-Emergence Efficacy—Test 2; conditions: post-emergence application, 250 g/ha, evaluated after 13 days (Test 2)
Method: as §1

[7] = system: Amaranthus retoflexus (AMARE); test: B5 Pre-Emergence Efficacy—Test 2; conditions: 250 g/ha, evaluated after 13 days
Method: (§2) B5 Pre-Emergence Efficacy—Test 2 Seeds of a variety of test species were sown in standard soil in pots: Solanum nigrum (SOLNI), Amaranthus retoflexus (AMARE), Setaria faberi (SETFA), Echinochloa crus-galli (ECHCG), Ipomoea hederacea (IPOHE), Lolium perenne (LOLPE). After cultivation for one day (pre-emergence) under controlled conditions in a glasshouse (at 24/16° C., day/night; 14 hours light; 65% humidity), the plants were sprayed with an aqueous spray solution derived from the formulation of the technical active ingredient in acetone/water (50:50) solution containing 0.5% Tween 20 (polyoxyethelyene sorbitan monolaurate, CAS RN 9005-64-5). Compounds are applied at 250 g/ha. The test plants were then grown in a glasshouse under controlled conditions (at 24/16° C., day/night; 14 hours light; 65% humidity) and watered twice daily. After 13 days, the test is evaluated for the percentage damage caused to the plant. The biological activities are assessed on a five point scale (5=80-100%; 4=60-79%; 3=40-59%; 2=20-39%; 1=0-19%). A blank value in the table is indicative that the compound was not tested on that species.

Solanum nigrum (SOLNI) [8] = test: B5 Pre-Emergence Efficacy—Test 2; conditions: 250 g/ha, evaluated after 13 days
Method: as §2

[9] = system: Echinochloa crus-galli (ECHCG); test: B5 Pre-Emergence Efficacy—Test 2; parameters: key: 5-point scale: 5=80-100%, 4=60-79%, 3=40-59%, 2=20-39%, 1=0-19% damage; conditions: 250 g/ha, evaluated after 13 days
Method: as §2

[10] = system: Ipomoea hederacea (IPOHE); test: B5 Pre-Emergence Efficacy—Test 2; parameters: key: 5-point scale: 5=80-100%, 4=60-79%, 3=40-59%, 2=20-39%, 1=0-19% damage; conditions: 250 g/ha, evaluated after 13 days
Method: as §2

Lolium perenne (LOLPE) [11] = test: B5 Pre-Emergence Efficacy—Test 2; parameters: key: 5-point scale: 5=80-100%, 4=60-79%, 3=40-59%, 2=20-39%, 1=0-19% damage; conditions: 250 g/ha, evaluated after 13 days
Method: as §2

Setaria faberi (SETFA) [12] = test: B5 Pre-Emergence Efficacy—Test 2; parameters: key: 5-point scale: 5=80-100%, 4=60-79%, 3=40-59%, 2=20-39%, 1=0-19% damage; conditions: 250 g/ha, evaluated after 13 days
Method: as §2

| SMILES | percentage damage caused to the plant, five point scale, AMARE [1] | percentage damage caused to the plant, five point scale, ECHCG [2] | percentage damage caused to the plant, five point scale, IPOHE [3] | percentage damage caused to the plant, five point scale, LOLPE (Lolium perenne (LOLPE) [4]) | percentage damage caused to the plant, five point scale, SETFA (Setaria faberi (SETFA) [5]) | percentage damage caused to the plant, five point scale, SOLNI (Solanum nigrum (SOLNI) [6]) | Control of weed species after pre-emergence application, AMARE (percentage damage, five point scale) [7] | Control of weed species after pre-emergence application, SOLNI (percentage damage, five point scale) (Solanum nigrum (SOLNI) [8]) | Control of weed species after pre-emergence application, ECHCG (percentage damage, five point scale) [9] | Control of weed species after pre-emergence application, IPOHE (percentage damage, five point scale) [10] | Control of weed species after pre-emergence application, LOLPE (percentage damage, five point scale) (Lolium perenne (LOLPE) [11]) | Control of weed species after pre-emergence application, SETFA (percentage damage, five point scale) (Setaria faberi (SETFA) [12]) |
| --- | --- | --- | --- | --- | --- | --- | --- | --- | --- | --- | --- | --- |
| Cc1nn(C)c(=O)c(-c2c(F)ccc(Cl)c2CCc2ccc(S(C)(=O)=O)cc2)c1O [Compound A-1.032] | 5 (5=80-100%) | 5 (5=80-100%) | 5 (5=80-100%) | 5 (5=80-100%) | 5 (5=80-100%) | 5 (5=80-100%) | 5 (5=80-100%) | 5 (5=80-100%) | 5 (5=80-100%) | 2 (2=20-39%) | 5 (5=80-100%) | 5 (5=80-100%) |
| Cc1nn(C)c(=O)c(-c2c(F)ccc(Cl)c2CCc2ccc(N(C)C)cc2)c1O [Compound A-1.033] | 5 (5=80-100%) | 4 (4=60-79%) | 5 (5=80-100%) | 5 (5=80-100%) | 5 (5=80-100%) | 5 (5=80-100%) | 1 (1=0-19%) | 1 (1=0-19%) | 0 | 1 (1=0-19%) | 1 (1=0-19%) | 2 (2=20-39%) |
| CNc1ccc(CCc2c(Cl)ccc(F)c2-c2c(O)c(C)nn(C)c2=O)cc1 [Compound A-1.034] | 5 (5=80-100%) | 1 (1=0-19%) | 5 (5=80-100%) | 5 (5=80-100%) | 5 (5=80-100%) | 5 (5=80-100%) | 0 | 2 (2=20-39%) | 0 | 0 | 0 | 0 |
| Cc1nn(C)c(=O)c(-c2c(F)ccc(Cl)c2CCc2ccc(OC(C)(C)C)cc2)c1O [Compound A-1.035] | 4 (4=60-79%) | 4 (4=60-79%) | 4 (4=60-79%) | 4 (4=60-79%) | 4 (4=60-79%) | 5 (5=80-100%) | 4 (4=60-79%) | 3 (3=40-59%) | 1 (1=0-19%) | 1 (1=0-19%) | 3 (3=40-59%) | 3 (3=40-59%) |
